Consider eleven molecules from paper PMC5630639 (Scientific Reports, 2017).

By IC50 is commonly meant the concentration needed to halve the response being measured. A word on the melting point: it is the temperature of the solid-liquid transition.

Data set [1] concerns MGC-803 cells. Briefly: CCK-8 proliferation assay, MGC-803. As to conditions: 48 h, CCK-8, mean ± SD. Type of data set: cell-based, human. As for the experimental part:
(§1) All synthesized β-lactam-azide derivatives were evaluated for their antiproliferative activity against three cancer cell lines (MGC-803, MCF-7, A549) using CCK-8 proliferation assay. The well-known anticancer drug CA-4P was used as a control[36],[37].
(§2) MGC-803 cell line was obtained from the Chinese Academy of Sciences (Shanghai, China). MCF-7 and A549 were from the National Cell Center, China. MGC-803 cells were cultured in DMEM culture medium (DMEM, Biological Industries, Kibbutz Beit Haemek, Israel). A549 and MCF-7 cells were cultured in 1640 medium (1640, Biological Industries, Kibbutz Beit Haemek, Israel). All medium were supplemented with 10% fetal bovine serum, 100 U/ml penicillin (North China Pharmaceutical group Co.), and 100 µg/ml streptomycin (North China Pharmaceutical group Co.). All cells were cultured at 37 °C in a humidified incubator containing 5% CO2.
(§3) Synthesized analogues used in the study were dissolved in 100% cell culture grade DMSO and the final concentration of DMSO as <0.1% for testing on cancer cell lines. Cytotoxicity assays were performed on the human gastric carcinoma cell line MGC-803, the human mammary carcinoma cell line MCF-7, the human lung carcinoma cell line A549. Cells (3500–5000/well) were seeded into 96-well plates in 100 µL of culture medium. The cells were treated in triplicate with a gradient concentration of testing compounds and incubated at 37 °C, 5% CO2 for 48 h. For all cell lines, CCK-8 assay was performed to measure cytotoxic effects. The absorbance was measured using a microplate reader (BioTek Instrument, Inc. Vermont, USA) with a test wavelength of 450 nm. The absorbance levels were corrected against untreated control absorbance values. All experiments were performed in triplicate and SPSS17.0 was used for data analysis to obtain IC50 values.
Background: Tetrazolium assays rely on reduction of a dye to a coloured formazan, in cell work by metabolically active cells.

Data set [2] concerns MCF-7 cells. Kind of data set: CCK-8 proliferation assay, MCF-7. Type of data set: cell-based, human. The following applies: 48 h, CCK-8, mean ± SD. As for the experimental part:
as §1, §2, §3

For data set [3], the system named is A549 cells. Briefly: CCK-8 proliferation assay, A549. Format: cell-based, human. As to conditions: 48 h, CCK-8, mean ± SD. The protocol: as §1, §2, §3
For data set [4], the system named is three cancer cell lines (MGC-803, MCF-7, A549). Briefly: CCK-8 proliferation assay, three cancer cell lines together. The following applies: Homo sapiens, 48 h, read-out: IC50 values toward three cancer cell lines. Type of data set: cell-based. The protocol: as §1, §2
Synthesized analogues used in the study were dissolved in 100% cell culture grade DMSO and the final concentration of DMSO as <0.1% for testing on cancer cell lines. […] The absorbance was measured using a microplate reader (BioTek Instrument, Inc. Vermont, USA) with a test wavelength of 450 nm. The absorbance levels were corrected against untreated control absorbance values. […]

In data set [5] the test system is bladder cancer cells. On the set-up: method as in PMID 18281555. The following applies: cited from earlier work.
In data set [6] the test system is MGC-803 xenograft. Briefly: MGC-803 xenograft model in nude mice. Format: in vivo, BALB/c nude mice. As to conditions: 100 mg/kg, intragastric daily. The protocol: To evaluate the potential antitumor effects of 28 in vivo, a MGC-803 xenograft model were established in nude mice by subcutaneously injecting MGC-803 cells at its logarithmic phase into the right flank of mice[56]. Tumor bearing mice were then randomly assigned to five groups (control, 100 mg/kg CA-4P, 25, 50, 100 mg/kg 28) with 10 mice per group. Then, the mice were gavaged with saline (control), CA-4P and different concentrations of 28 in saline solution daily. […] At the end of the observation period, mean tumor volumes of control, CA-4P, 25, 50, and 100 mg/kg 28 groups were 1665.98 ± 568.36 mm^3, 642.61 ± 449.92 mm^3, 788.18 ± 435.92 mm^3, 1125.93 ± 668.25 mm^3 and 1273.88 ± 513.69 mm^3, respectively. […] The antitumor activity of 28 in vivo was similar to that of CA-4P.
Animals were treated according to protocols established by the ethics committee of Zhengzhou University and the in vivo experiments were carried out in accordance with the approved guidelines and approved by the ethics committee of Zhengzhou University. BALB/c nude mice (18 g, aged 4–5 weeks) were purchased from Human SJA Laboratory Animal Co. Ltd. (Hunan, China). Mice were subcutaneously implanted with MGC-803 cells (5 × 10^6 cells per mouse) on the right flank of nude mice. Once tumor volumes reached to approximately 100 mm^3, the mice were randomly divided into corresponding saline, CA-4P (100 mg/kg), 28 (100 mg/kg), 28 (50 mg/kg) and 28 (25 mg/kg) treatment groups (n = 10 mice for each group). The treatment groups received intragastric administration of 28 and CA-4P per day for a period of 21 days. Then, the mice were euthanized and tumors isolated and weighed. Their body weights were measured and tumor sizes determined by vernier caliper measurement every other day.

Data set [7] deals with tubulin. Further details: method as in PMID 15588080. The following applies: cited from earlier work.
The test system of data set [8] is tubulin. Further details: method as in PMID 11058036. The following applies: read-out: anti-tubulin activity IC50; cited from earlier work.

Take `COc1cc(N2C(=O)[C@@H](c3ccccc3)[C@@H]2c2ccc(-n3cc(COc4cccc([N+](=O)[O-])c4)nn3)cc2)cc(OC)c1OC` (relative stereo) [Compound 29, trans-4-(4-(4-((3-nitrophenoxy)methyl)-1H-1,2,3-triazol-1-yl)phenyl)-3-phenyl-1-(3,4,5-trimethoxyphenyl)azetidin-2-one]: the melting point fell in the range of 142 to 145 °C. Further, the IC50 in data set [1] (Homo sapiens, MGC-803) is > 20000 nM. Besides, the IC50 in data set [2] (Homo sapiens, MCF7) is > 20000 nM. The IC50 in data set [3] (Homo sapiens, A549) is > 20000 nM.
As to `COc1cc(N2C(=O)[C@H](c3cccs3)[C@H]2c2ccc(N=[N+]=[N-])cc2)cc(OC)c1OC` (relative stereo) [Compound 26, trans-4-(4-azidophenyl)-3-(thiophen-2-yl)-1-(3,4,5-trimethoxyphenyl)azetidin-2-one], the IC50 in [1] (Homo sapiens, MGC-803) is 251 ± 53 nM; in data set [2] (Homo sapiens, MCF7), 154 ± 19 nM; in data set [4], 154 to 4200 nM; in data set [3] (Homo sapiens, A549), 4200 ± 186 nM.
Take `COc1cccc(/C=C/C(=O)N=[N+]=[N-])c1OC` [Compound 1]: in data set [5], the “in vitro and in vivo antitumor effect of romidepsin on bladder cancer cells” value is recorded as “enhanced”.
In turn, `COc1ccc(N2C(=O)[C@H](c3ccc(Cl)cc3)[C@H]2c2ccc(N=[N+]=[N-])cc2)cc1` (relative stereo) [Compound 14, trans-4-(4-azidophenyl)-3-(4-chlorophenyl)-1-(4-methoxyphenyl)azetidin-2-one] gave a melting point of 147 to 149 °C. In [1] (Homo sapiens, MGC-803), the IC50 was > 20000 nM. Also, in data set [2] (Homo sapiens, MCF7), the IC50 was > 20000 nM. Further, the IC50 in data set [3] (Homo sapiens, A549) was > 20000 nM.
Regarding `COc1ccc(/C=C\c2cc(OC)c(OC)c(OC)c2)cc1OP(=O)(O)O` [CA-4P, reference compound], the IC50 in data set [1] came out at 15 ± 1 nM; in [2], 23 ± 2 nM; in data set [3], 33 ± 7 nM. In addition, the “inhibitory rate (tumor weight)” value in [6] (21 days) came to 63.27%. Besides, the average tumor weight in data set [6] (21 days (control 1.23 ± 0.28)) is 0.45 ± 0.22 g. In addition, the “mean tumor volume at end of observation period” value in data set [6] (21 days (control 1665.98 ± 568.36)) amounted to 642.61 ± 449.92 mm^3.
For `COc1ccc([C@@H]2C(=O)N(c3cc(OC)c(OC)c(OC)c3)[C@H]2c2ccc(-n3cc(-c4ccccc4)nn3)cc2)cc1` (relative stereo) [Compound 30, trans-3-(4-methoxyphenyl)-4-(4-(4-phenyl-1H-1,2,3-triazol-1-yl)phenyl)-1-(3,4,5-trimethoxyphenyl)azetidin-2-one], the melting point lay in the range of 90 to 91 °C. Besides, the IC50 in data set [1] (Homo sapiens, MGC-803) was > 20000 nM. Also, the IC50 in data set [2] (Homo sapiens, MCF7) was > 20000 nM. Further, in data set [3] (Homo sapiens, A549), the IC50 was > 20000 nM.
For the molecule `COc1ccc(N2C(=O)[C@@H](c3ccccc3)[C@@H]2c2ccc(N=[N+]=[N-])cc2)cc1` (relative stereo) [Compound 15, trans-4-(4-azidophenyl)-1-(4-methoxyphenyl)-3-phenylazetidin-2-one], the melting point lay in the range of 114 to 116 °C. Besides, the IC50 in data set [1] (Homo sapiens, MGC-803) is > 20000 nM. The IC50 in [2] (Homo sapiens, MCF7) was > 20000 nM. In data set [3] (Homo sapiens, A549), the IC50 was > 20000 nM.
As for `CC(=O)OC1C(=O)C2(C)C(O)CC3OCC3(OC(C)=O)C2C(OC(=O)c2ccccc2)C2(O)CC(OC(=O)C(O)C(NC(=O)c3ccccc3)c3ccc(N=[N+]=[N-])cc3)C(C)=C1C2(C)C` (stereo not shown) [Compound 3, 3′-(4-Azidophenyl)-3′-dephenylpaclitaxel], the “activity in tubulin assembly and cytotoxicity assays” value in data set [7] is recorded as “as active as paclitaxel”.
Consider `COc1cc(N2C(=O)[C@@H](c3ccccc3)[C@@H]2c2cccc(N=[N+]=[N-])c2)cc(OC)c1OC` (relative stereo) [Compound 25, trans-4-(3-azidophenyl)-3-phenyl-1-(3,4,5-trimethoxyphenyl)azetidin-2-one], for which the melting point lay within 128 to 129 °C. For the same molecule, the midpoint of inhibition in data set [1] (Homo sapiens, MGC-803), the IC50, lay at 392 ± 28 nM. Further, inhibition in data set [2] (Homo sapiens, MCF7) was half-maximal at 805 ± 176 nM (IC50). Also, half-maximal inhibition in data set [3] (Homo sapiens, A549) (IC50) required 2130 ± 390 nM.
`COc1cc(N2C(=O)[C@H](c3ccccc3)[C@H]2c2ccc(N=[N+]=[N-])cc2)cc(OC)c1OC` (relative stereo) [Compound 18, trans-4-(4-azidophenyl)-3-phenyl-1-(3,4,5-trimethoxyphenyl)azetidin-2-one] yielded a melting point of 66 to 68 °C. It took 171 ± 51 nM to reach half-maximal inhibition in data set [1] (Homo sapiens, MGC-803) (IC50). In [2] (Homo sapiens, MCF7), this molecule gave a concentration for half-maximal inhibition (IC50) of 338 ± 4 nM. In data set [3] (Homo sapiens, A549), this molecule came in with an IC50 of 1740 ± 145 nM.
On to `COc1cc(/C=C\c2cc(OC)c(OC)c(OC)c2)ccc1N=[N+]=[N-]` [Compound 2], for which, in [8], the IC50 was 5200 nM.
